Results: patent US11091486B2, “Process for the preparation of pyrazolo[1,5-a]pyrimidines and salts thereof” (Array BioPharma Inc., priority 2016, dated 2021)

Legend:
Type in all cases: physicochemical
[1] = Dynamic vapor sorption (DVS); details: post-DVS XRPD
Description: Approximately, 10 mg of sample was placed into a mesh vapor sorption balance pan and loaded into a DVS-1 dynamic vapor sorption balance by Surface Measurement Systems. The sample was subjected to a ramping profile from 40-90% relative humidity (RH) at 10% increments, maintaining the sample at each step until a stable weight had been achieved (99.5% step completion). After completion of the sorption cycle, the sample was dried using the same procedure to 0% RH and then a second sorption cycle back to 40% RH. The weight change during the sorption/desorption cycles were plotted, allowing for the hygroscopic nature of the sample to be determined. XRPD analysis was then carried out on any solid retained.

[2] = Salt disproportionation studies; details: deionized water, 24 h at ambient temperature
Description: Salt disproportionation studies were carried out as follows: 20 mg of prepared salts were weighed into a vial and 0.5 mL of deionized water was added. The samples were then agitated for 24 h at ambient temperature. The pH of the samples was taken pre- and post-agitation. Any solids recovered were submitted for XRPD analysis to determine any changes to form.

[3] = 1-week stability tests (40° C./75% RH, 80° C., ambient light), XRPD and UPLC
Text: Compound 1 (Form I) was subjected to various different environmental conditions to assess stability.

[4] = Hydration screen in acetone/water mixtures; details: 24 hr
Description: Hydration screen was carried out as follows: 10 mg of prepared salts were suspended in several acetone/water mixtures of various water activities (low: aw=0.281, medium: aw=0.776 and high: aw=0.919) and agitated at ambient temperatures for 24 hr. Any recovered solids were submitted for XRPD analysis to determine any changes to form.

[5] = Thermodynamic solubility of prepared salts
Description: Thermodynamic solubility studies were carried out as follows: 10 mg of prepared salts were suspended in pH 1, 4.5, 6.8 and un-buffered water (300 μL). The pH of the slurries was measured and adjusted accordingly using either 0.2M HCl solution or 0.2M sodium hydroxide solution. The slurries were agitated for 24 hours at ambient temperature using an incubator shaker.

[6] = Gravimetric vapor sorption (GVS)
Description: Approximately 10-20 mg of sample was placed into a mesh vapor sorption balance pan and loaded into an IGASorp Moisture Sorption Analyzer balance by Hiden Analytical. […] After completion of the sorption cycle, the sample was dried using the same procedure to 0% RH, and finally taken back to the starting point of 40% RH. The weight change during the sorption/desorption cycles were plotted, allowing for the hygroscopic nature of the sample to be determined.

[7] = medium water activity (aw=0.776)

| Structure (SMILES) | Salt disproportionation: recovered material by XRPD [2] | 1-week stability test: change in purity (UPLC) ([3]; 40° C./75% RH) | 1-week stability test: change in purity (UPLC) ([3]; 80° C.) | 1-week stability test: change in purity (UPLC) ([3]; ambient light) | Hydration study: recovered solid by XRPD ([4]; high water activity (aw=0.919)) | Hydration study: recovered solid by XRPD ([4]; low water activity (aw=0.281)) | Hydration study: recovered solid by XRPD [4, 7] | Thermodynamic solubility in words ([5]; pH 1) | Solid recovered from thermodynamic solubility slurry (XRPD) ([5]; pH 4.5) | Thermodynamic solubility in words ([5]; pH 4.5) | Solid recovered from thermodynamic solubility slurry (XRPD) ([5]; pH 6.8) | Thermodynamic solubility in words ([5]; pH 6.8) | Solid recovered from thermodynamic solubility slurry (XRPD) ([5]; unbuffered water) | Thermodynamic solubility in words ([5]; unbuffered water) | further results |
| --- | --- | --- | --- | --- | --- | --- | --- | --- | --- | --- | --- | --- | --- | --- | --- |
| C[C@@H]1CCc2ncc(F)cc2[C@H]2CCCN2c2ccn3ncc(c3n2)C(=O)N1.O=C(O)CC(O)(CC(=O)O)C(=O)O [Compound 1 citrate] | poorly crystalline citrate salt | no change to purity | no change to purity | no change to purity | poorly crystalline citrate salt | poorly crystalline citrate salt | unknown form | high solubility | Compound 1 citrate | lower solubility | poorly crystalline free base | lower solubility | Compound 1 citrate | highly soluble | Crystalline form by XRPD after exposure to DVS humidity conditions [1]: no changes in crystalline form; 1-week stability test: change to form (XRPD) ([3]; 40° C./75% RH): no change to form; 1-week stability test: change to form (XRPD) ([3]; 80° C.): no change to form; 1-week stability test: change to form (XRPD) ([3]; ambient light): no change to form; Solid recovered from thermodynamic solubility slurry (XRPD) ([5]; pH 1): poorly crystalline solids |
| CS(=O)(=O)O.C[C@@H]1CCc2ncc(F)cc2[C@H]2CCCN2c2ccn3ncc(c3n2)C(=O)N1 [Compound 1 mesylate] | no change to form | no change to purity | no change to purity | no change to purity | free base | a mixture of free base and salt | mesylate salt | moderately soluble | mesylate salt | moderately soluble | free base | low solubility | free base | moderately soluble | Hygroscopicity, mass uptake by GVS ([6]; at 90% RH): about 32%; Crystalline form by XRPD after exposure to GVS humidity conditions ([6]; post-GVS XRPD): desolvate and become the mesylate form seen in the salt screen |
